According to ChEMBL document CHEMBL4007424, “Design and Synthesis of Enantiomerically Pure Decahydroquinoxalines as Potent and Selective κ-Opioid Receptor Agonists with Anti-Inflammatory Activity in Vivo” (J Med Chem, 2017):

What was measured:
[1] = target: Kappa-type opioid receptor (Cavia porcellus, UniProt P41144); experiment: Displacement of [3H]U-69,593 from kappa-type opioid receptor in guinea pig brain membranes after 120 mins by solid scintillation counting; type: cell membranes, Membrane
[2] = Displacement of [3H]DPDPE from delta-type opioid receptor in guinea pig brain membranes after 120 mins by solid scintillation counting; type: cell membranes, Cavia porcellus, Membrane
[3] = target: T1, Kappa-type opioid receptor (Homo sapiens, UniProt P41145); experiment: Agonist activity at recombinant human kappa-type opioid receptor expressed in HEK293 cells after 30 mins by [35S]GTPgammaS binding assay; type: functional, cell-based
Mu-type opioid receptor = Mu-type opioid receptor (Cavia porcellus, UniProt P97266); experiment: Displacement of [3H]DAMGO from mu-type opioid receptor in guinea pig brain membranes after 120 mins by solid scintillation counting; type: cell membranes, Membrane
[4] = Plasma concentration in Wistar Han rat at 5 mg/kg, iv measured 0.25 hrs post compound administration; type: ADME, organism-based
[5] = Ratio of drug level in brain to plasma in Wistar Han rat at 5 mg/kg, iv after 1 hr; type: ADME, organism-based; conditions: read-out: BPR
Rattus norvegicus [6] = experiment: Toxicity in Wistar Han rat assessed as assessed as clinical signs changes at 5 mg/kg, iv after 1 hr; type: organism-based; conditions: in vivo
[7] = Drug level in Wistar Han rat brain at 5 mg/kg, iv measured 1 hr post compound administration; type: ADME, organism-based; conditions: read-out: Drug uptake
[8] = Plasma concentration in Wistar Han rat at 5 mg/kg, iv measured 1 hr post compound administration; type: ADME, organism-based
Mus musculus [9] = experiment: Antiinflammatory activity in arachidonic acid-induced ear dermatitis ICR mouse model assessed as reduction in ear swelling at 3 mg administered twice tropically 30 mins prior and 15 mins after arachidonic acid addition measured 60 mins post arachidonic acid challenge relative to control; type: functional
Mus musculus [10] = experiment: Antiinflammatory activity in arachidonic acid-induced ear dermatitis ICR mouse model assessed as reduction in ear swelling at 1 mg administered twice tropically 30 mins prior and 15 mins after arachidonic acid addition measured 60 mins post arachidonic acid challenge relative to control; type: functional
Mus musculus [11] = experiment: Antiinflammatory activity in arachidonic acid-induced ear dermatitis ICR mouse model assessed as reduction in ear swelling at 0.3 mg administered twice tropically 30 mins prior and 15 mins after arachidonic acid addition measured 60 mins post arachidonic acid challenge relative to control; type: functional
Mus musculus [12] = experiment: Antiinflammatory activity in arachidonic acid-induced ear dermatitis ICR mouse model assessed as reduction in ear swelling at 0.1 mg administered twice tropically 30 mins prior and 15 mins after arachidonic acid addition measured 60 mins post arachidonic acid challenge relative to control; type: functional
[13] = target: T1, Kappa-type opioid receptor; experiment: Agonist activity at recombinant human kappa-type opioid receptor expressed in HEK293 cells at 1 uM after 30 mins by [35S]GTPgammaS binding assay; type: functional, cell-based
[14] = target: Sigma non-opioid intracellular receptor 1 (Cavia porcellus) (UniProt Q60492); experiment: Displacement of [3H]-(+)-pentazocine from sigma1-type […] receptor in guinea pig cortex membranes at 1 uM after 120 mins by solid scintillation counting; type: cell membranes
Sus scrofa = organism: Sus scrofa; experiment: Displacement of [3H]-(+)-MK 801 from PCP binding site of NMDA receptor in pig brain cortex membranes at 10 uM after 120 mins by solid scintillation counting; type: cell membranes
Rattus norvegicus [15] = organism: Rattus norvegicus; experiment: Displacement of [3H]-DTG from sigma 2 receptor in rat liver membranes at 1 uM after 120 mins by scintillation counting; type: cell membranes; conditions: Membrane
[16] = target: Mu-type opioid receptor (Cavia porcellus) (UniProt P97266); experiment: Displacement of [3H]DAMGO from mu-type opioid receptor in guinea pig brain membranes at 1 uM after 120 mins by solid scintillation counting; type: cell membranes; conditions: Membrane
Chain of Mu-type opioid receptor (Cavia porcellus) (P97266 whole entry): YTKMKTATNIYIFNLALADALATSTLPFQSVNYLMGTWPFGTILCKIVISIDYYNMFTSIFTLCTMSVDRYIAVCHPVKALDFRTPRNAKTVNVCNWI

T1 sequence (P41145 whole entry): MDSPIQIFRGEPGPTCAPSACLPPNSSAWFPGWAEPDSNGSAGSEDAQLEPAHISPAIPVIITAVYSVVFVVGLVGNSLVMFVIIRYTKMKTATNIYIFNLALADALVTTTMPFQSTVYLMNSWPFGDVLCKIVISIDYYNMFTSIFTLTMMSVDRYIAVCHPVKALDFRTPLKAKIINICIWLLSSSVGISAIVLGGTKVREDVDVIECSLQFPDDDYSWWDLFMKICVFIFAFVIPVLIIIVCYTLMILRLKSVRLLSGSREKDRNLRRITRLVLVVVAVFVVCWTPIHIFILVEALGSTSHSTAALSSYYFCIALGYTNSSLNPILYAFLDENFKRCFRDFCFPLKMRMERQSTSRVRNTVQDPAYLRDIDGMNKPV
Chain of Mu-type opioid receptor (P97266 whole entry): as the sequence (P97266 whole entry) above
Chain of Kappa-type opioid receptor (Cavia porcellus, UniProt P41144) (P41144 whole entry): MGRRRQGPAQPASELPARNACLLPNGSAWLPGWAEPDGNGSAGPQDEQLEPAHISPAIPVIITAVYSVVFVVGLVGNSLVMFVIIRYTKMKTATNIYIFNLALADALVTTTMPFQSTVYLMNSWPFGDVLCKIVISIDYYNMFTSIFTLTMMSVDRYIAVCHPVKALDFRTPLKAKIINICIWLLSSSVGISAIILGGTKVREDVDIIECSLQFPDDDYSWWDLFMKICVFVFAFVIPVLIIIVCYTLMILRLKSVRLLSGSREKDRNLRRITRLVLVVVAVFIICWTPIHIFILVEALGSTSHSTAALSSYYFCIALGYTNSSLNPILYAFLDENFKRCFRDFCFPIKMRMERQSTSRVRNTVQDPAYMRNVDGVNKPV
Chain of Sigma non-opioid intracellular receptor 1 (Cavia porcellus) (Q60492 whole entry): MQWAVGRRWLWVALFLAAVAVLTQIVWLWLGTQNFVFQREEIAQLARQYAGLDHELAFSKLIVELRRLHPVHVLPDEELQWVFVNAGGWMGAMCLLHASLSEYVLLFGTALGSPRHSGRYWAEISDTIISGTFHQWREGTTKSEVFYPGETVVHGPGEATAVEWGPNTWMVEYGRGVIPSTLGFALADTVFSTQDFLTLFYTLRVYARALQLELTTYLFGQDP

COC(=O)N1CCN(C(=O)Cc2ccc(Cl)c(Cl)c2)[C@@H]2[C@@H](N(C)C)CCC[C@@H]21
Ki [1]: 0.16 nM | Ki [2]: 7.9 nM | EC50 [3]: 1 nM

COC(=O)N1CCN(C(=O)Cc2ccc(C(F)(F)F)c(Cl)c2)[C@@H]2[C@@H](N3CC[C@H](O)C3)CCC[C@@H]21 [listing 1 of 2 here]
Ki [1]: 0.27 nM | Ki [2]: 394 nM | EC50 [3]: 0.3 nM | Ki (Mu-type opioid receptor): 612 nM

COC(=O)N1CCN(C(=O)Cc2ccc(F)c(Cl)c2)[C@@H]2[C@@H](N3CC[C@H](O)C3)CCC[C@@H]21.Cl
concentration at 0.25 h [4]: 970 ng/mL | Kp at 1 h [5]: 0.09 | Activity (Rattus norvegicus [6]): Non-Toxic | concentration at 1 h [7]: 44 ng/g | concentration at 1 h [8]: 465 ng/mL

COC(=O)N1CCN(C(=O)Cc2ccc(Cl)c(F)c2)[C@@H]2[C@@H](N3CC[C@H](O)C3)CCC[C@@H]21
inhibition (INH) (Mus musculus [9]): 68% | inhibition (INH) (Mus musculus [10]): 59% | Ki [1]: 1.8 nM | Ki [2]: 250 nM | inhibition (INH) (Mus musculus [11]): 37% | inhibition (INH) (Mus musculus [12]): 2% | EC50 [3]: 3.9 nM | Ki (Mu-type opioid receptor): 551 nM

COC(=O)N1CCN(C(=O)Cc2ccc(F)c(Cl)c2)[C@@H]2[C@@H](N3CC[C@H](O)C3)CCC[C@@H]21
inhibition (INH) (Mus musculus [9]): 66% | inhibition (INH) (Mus musculus [10]): 58% | Ki [1]: 0.82 nM | Ki [2]: 61 nM | inhibition (INH) (Mus musculus [11]): -4% | inhibition (INH) (Mus musculus [12]): -12% | EC50 [3]: 2.2 nM | Ki (Mu-type opioid receptor): 1300 nM

CS(=O)(=O)N1CCN(C(=O)Cc2ccc(Cl)c(Cl)c2)[C@@H]2[C@@H](N3CC[C@H](O)C3)CCC[C@@H]21.Cl
concentration at 0.25 h [4]: 4650 ng/mL | Kp at 1 h [5]: 0.02 | Activity (Rattus norvegicus [6]): Non-Toxic | concentration at 1 h [7]: 52.3 ng/g | concentration at 1 h [8]: 2170 ng/mL

COC(=O)N1CCN(C(=O)Cc2ccc(Cl)c(Cl)c2)[C@@H]2[C@@H](N3CC[C@H](O)C3)CCC[C@@H]21
Activity [13]: 113% | inhibition [14]: 0% | inhibition (Sus scrofa): 21% | inhibition (Rattus norvegicus [15]): 12%

COC(=O)N1CCN(C(=O)Cc2ccc(Cl)cc2)[C@@H]2[C@@H](N3CC[C@H](O)C3)CCC[C@@H]21.Cl
concentration at 0.25 h [4]: 1340 ng/mL | Kp at 1 h [5]: 0.19 | Activity (Rattus norvegicus [6]): Non-Toxic | concentration at 1 h [7]: 70.6 ng/g | concentration at 1 h [8]: 374 ng/mL

CC(C)NC(=O)N1CCN(C(=O)Cc2ccc(Cl)c(Cl)c2)[C@@H]2[C@@H](N3CCCC3)CCC[C@@H]21 [listing 1 of 2 here]
Activity [13]: 100% | inhibition [14]: 0% | inhibition [16]: 0% | inhibition (Sus scrofa): 0% | inhibition (Rattus norvegicus [15]): 0%

COC(=O)N1CCN(C(=O)Cc2ccc(Cl)cc2)[C@@H]2[C@@H](N3CC[C@H](O)C3)CCC[C@@H]21
inhibition (INH) (Mus musculus [9]): 62% | inhibition (INH) (Mus musculus [10]): 27% | Ki [1]: 0.65 nM | Ki [2]: 451 nM | inhibition (INH) (Mus musculus [11]): 27% | inhibition (INH) (Mus musculus [12]): 24% | EC50 [3]: 14 nM | Ki (Mu-type opioid receptor): 365 nM

COC(=O)N1CCN(C(=O)Cc2ccc(C(F)(F)F)c(Cl)c2)[C@@H]2[C@@H](N3CC[C@H](O)C3)CCC[C@@H]21 [listing 2 of 2 here]
Activity [13]: 100% | inhibition [14]: 30% | inhibition (Sus scrofa): 0% | inhibition (Rattus norvegicus [15]): 5%

COC(=O)N1CCN(C(=O)Cc2ccc(Cl)c(Cl)c2)[C@@H]2[C@@H](N3CC[C@@H](O)C3)CCC[C@@H]21
Activity [13]: 109% | inhibition [14]: 0% | inhibition [16]: 5% | inhibition (Sus scrofa): 55% | inhibition (Rattus norvegicus [15]): 13%

CC(C)NC(=O)N1CCN(C(=O)Cc2ccc(Cl)c(Cl)c2)[C@@H]2[C@@H](N3CCCC3)CCC[C@@H]21 [listing 2 of 2 here]
Ki [1]: 2.5 nM | Ki [2]: 237 nM | EC50 [3]: 4.5 nM

O=C(Cc1ccc(Cl)cc1)N1CCN(S(=O)(=O)Cc2ccon2)[C@H]2CCC[C@H](N3CC[C@H](O)C3)[C@H]21
Activity [13]: 103% | inhibition [14]: 24% | Ki [1]: 0.98 nM | Ki [2]: 880 nM | inhibition [16]: 0% | inhibition (Sus scrofa): 0% | inhibition (Rattus norvegicus [15]): 0% | EC50 [3]: 6.9 nM

CS(=O)(=O)N1CCN(C(=O)Cc2ccc(Cl)c(F)c2)[C@@H]2[C@@H](N3CC[C@H](O)C3)CCC[C@@H]21
Activity [13]: 105% | inhibition [14]: 12% | inhibition (Sus scrofa): 16% | inhibition (Rattus norvegicus [15]): 0%
